Measurements from ChEMBL document CHEMBL1201862, “PubChem BioAssay data set” (2004).
“And” between values parts separate entries of the source, which are not always exact repeats. Equal values may be shown once. The source made the active and inactive calls.

Tests used:
[1] = LGR2 antagonists, dose response, cell-based, HEK293, CRE-luciferase reporter, cherry pick, set 2 (AID 743343); format: functional;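 further: transfected cells were stimulated with diluted bursicon conditioned medium after compound addition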
[2] = HEK293 cell cytotoxicity, dose response, cytotoxicity control, plate reader, cherry-picked samples (AID 743446); format: functional, cell-based
[3] = MC4R antagonists, dose response, counter-screen for LGR2 antagonist project, cell-based, plate reader, cherry pick (AID 743444); format: functional;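 further: transfected HEK 293 cells stimulated with alpha-MSH peptide; potency of inhibitors of the alpha-MSH evoked signal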
[4] = cells; format: functional
[5] = A549 cell cytotoxicity, dose response, cytotoxicity control, plate reader, cherry-pick, antagonist series (AID 743412); format: functional, cell-based
[6] = HepG2 cell cytotoxicity, dose response, cytotoxicity control, plate reader, cherry-pick, antagonist series (AID 743416); format: functional, cell-based
[7] = biological target: T1, Short transient receptor potential channel 4 (Mus musculus, UniProt Q9QUQ5); assay: mouse TRPC4 channel inhibitors, dose response, cell-based, HEK293 TRPC4/mu-opioid, Fluo-4 calcium (AID 434942); format: functional;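 further: potency of inhibitors blocking the TRPC4 calcium response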
T1 sequence (Q9QUQ5 whole entry): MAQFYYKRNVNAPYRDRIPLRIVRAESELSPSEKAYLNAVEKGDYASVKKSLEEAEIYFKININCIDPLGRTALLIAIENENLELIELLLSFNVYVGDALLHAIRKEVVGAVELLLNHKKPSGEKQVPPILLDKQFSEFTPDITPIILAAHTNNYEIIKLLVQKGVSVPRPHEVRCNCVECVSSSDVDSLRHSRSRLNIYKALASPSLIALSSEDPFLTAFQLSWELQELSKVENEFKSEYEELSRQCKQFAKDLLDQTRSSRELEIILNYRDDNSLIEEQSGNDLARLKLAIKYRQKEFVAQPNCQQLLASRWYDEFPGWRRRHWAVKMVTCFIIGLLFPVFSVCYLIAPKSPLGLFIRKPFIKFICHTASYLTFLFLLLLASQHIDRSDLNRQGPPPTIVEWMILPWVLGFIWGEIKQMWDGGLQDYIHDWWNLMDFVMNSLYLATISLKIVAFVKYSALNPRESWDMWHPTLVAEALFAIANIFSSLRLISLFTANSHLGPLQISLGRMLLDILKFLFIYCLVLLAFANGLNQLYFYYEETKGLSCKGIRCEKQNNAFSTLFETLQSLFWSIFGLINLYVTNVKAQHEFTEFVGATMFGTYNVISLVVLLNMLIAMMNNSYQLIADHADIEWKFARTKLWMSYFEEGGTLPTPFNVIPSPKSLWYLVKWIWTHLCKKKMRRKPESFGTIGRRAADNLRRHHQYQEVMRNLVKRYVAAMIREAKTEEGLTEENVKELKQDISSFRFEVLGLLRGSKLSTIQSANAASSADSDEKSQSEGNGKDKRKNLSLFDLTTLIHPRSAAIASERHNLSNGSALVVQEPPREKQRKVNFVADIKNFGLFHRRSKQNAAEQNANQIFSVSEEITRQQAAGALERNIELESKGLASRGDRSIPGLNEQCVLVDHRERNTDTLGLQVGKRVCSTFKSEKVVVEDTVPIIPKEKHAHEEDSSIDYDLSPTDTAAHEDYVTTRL

[8] = biological target: FAD-linked sulfhydryl oxidase ALR (Homo sapiens, UniProt P55789); assay: inhibitors of human ALR sulfhydryl oxidase, dose response, biochemical, H2O2 detection, luminescence, cherry-pick (AID 493248)
[9] = biological target: T2, Cytochrome P450 3A4 (Homo sapiens, UniProt P08684)
[10] = biological target: Glyceraldehyde-3-phosphate dehydrogenase (Homo sapiens, UniProt P04406)
[11] = ZM109 Env clade C HIV-1 fusion inhibitors, dose response, HeLa effector, CEM target cells, luciferase, cherry-pick (AID 652058); format: functional, cell-based
[12] = biological target: Large T antigen (Simian virus 40, UniProt P03070); format: functional, Betapolyomavirus macacae;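 further: Confirmatory-stage PubChem screen for compounds that inhibit SV40 T antigen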
[13] = P. falciparum Dd2 growth inhibitors, dose response, SYBR Green, cherry-picked samples (AID 1159567); format: functional, cell-based
[14] = microbe, parasite or virus in culture; format: functional; details: Mycobacterium tuberculosis
[15] = test system: Streptococcus; assay: Group A Streptococcus viability loss, dose response, counter-screen for streptokinase expression inhibitor project, luminescence, BacTiterGlo (AID 1915); format: functional, organism-based;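 further: potency for reduction of bacterial viability or growth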
[16] = biological target: T3, Heat shock factor protein 1 (Mus musculus, UniProt P38532); assay: HSF1 potentiators in luciferase reporter cells, confirmation, cell-based, NIH3T3, luminescence, dose retest (AID 435004); format: functional;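 further: stress induced by proteasome inhibitor MG132 added 30 min after compound; luciferase reporter driven by HSF1 response element in NIH3T3 cells; actives raise luminescence as potentiators of the MG132 stress response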
T3 sequence (P38532 whole entry): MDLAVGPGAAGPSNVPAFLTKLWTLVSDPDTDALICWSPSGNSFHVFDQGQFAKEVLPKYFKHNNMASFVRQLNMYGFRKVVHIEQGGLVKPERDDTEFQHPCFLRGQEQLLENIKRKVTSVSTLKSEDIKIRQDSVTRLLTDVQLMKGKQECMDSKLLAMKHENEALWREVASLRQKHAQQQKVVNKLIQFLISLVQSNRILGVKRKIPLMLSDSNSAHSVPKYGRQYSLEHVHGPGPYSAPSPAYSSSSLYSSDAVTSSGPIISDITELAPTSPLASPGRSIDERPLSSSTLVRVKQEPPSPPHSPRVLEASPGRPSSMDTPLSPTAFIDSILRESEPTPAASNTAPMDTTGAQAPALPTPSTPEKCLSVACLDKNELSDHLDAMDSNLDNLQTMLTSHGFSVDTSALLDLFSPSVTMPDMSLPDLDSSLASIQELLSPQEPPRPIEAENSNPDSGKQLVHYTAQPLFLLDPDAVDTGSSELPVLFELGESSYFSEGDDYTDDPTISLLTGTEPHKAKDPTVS

[17] = biological target: T4, Streptokinase A (Streptococcus pyogenes serotype M1, UniProt P10520); assay: S. pyogenes streptokinase expression inhibitors, potency, dose response, plasminogen activation absorbance, OD405 (AID 1914); format: functional, Streptococcus pyogenes M1 GAS;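 further: secreted streptokinase activity via plasminogen activation per viability signal from cell pellet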
T4 sequence (P10520 whole entry): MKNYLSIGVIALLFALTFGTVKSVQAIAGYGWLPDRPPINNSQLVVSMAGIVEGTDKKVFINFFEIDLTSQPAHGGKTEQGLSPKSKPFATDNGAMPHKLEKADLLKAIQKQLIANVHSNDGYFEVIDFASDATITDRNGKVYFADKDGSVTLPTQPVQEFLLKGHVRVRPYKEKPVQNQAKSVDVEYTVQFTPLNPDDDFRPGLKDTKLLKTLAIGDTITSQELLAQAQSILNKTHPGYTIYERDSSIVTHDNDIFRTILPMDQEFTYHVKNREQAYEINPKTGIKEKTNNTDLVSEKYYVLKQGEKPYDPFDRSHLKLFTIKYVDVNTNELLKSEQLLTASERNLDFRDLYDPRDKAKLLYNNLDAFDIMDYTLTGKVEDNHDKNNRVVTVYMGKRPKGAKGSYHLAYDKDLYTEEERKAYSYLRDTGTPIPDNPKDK

[18] = growth suppression of beta-catenin-knockout colon cells, dose response, cell-based, HCT116, human colon tumor (AID 1045); format: functional;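 further: HCT116 colon tumor cells with beta catenin knocked out; cells exposed to compound for 60 hours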
[19] = growth suppression of PTEN-null colon cells, dose response, cell-based, HCT116 PTEN knockout (AID 1047); format: functional;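 further: HCT116 colon tumor cells with PTEN knocked out; cells exposed to compound for 60 hours before readout; potency for loss of cell viability measured by luminescence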
[20] = test system: Streptococcus sp. 'group A'; assay: growth inhibition of control SK(-) GAS strain, dose response, counter-screen for streptokinase expression inhibitor project, luminescence, kanamycin, BacTiterGlo, confirmation (AID 1900); format: functional, organism-based
[21] = Luminescence Cell-Based Dose Retest to Confirm Inhibitors of Cancer Stem Cells. [Related pubchem assays (depositor defined):AID2717, AID2721]; format: functional; details: Homo sapiens
[22] = biological target: T2, Cytochrome P450 3A4; details: Potency

T2 sequence (P08684 whole entry): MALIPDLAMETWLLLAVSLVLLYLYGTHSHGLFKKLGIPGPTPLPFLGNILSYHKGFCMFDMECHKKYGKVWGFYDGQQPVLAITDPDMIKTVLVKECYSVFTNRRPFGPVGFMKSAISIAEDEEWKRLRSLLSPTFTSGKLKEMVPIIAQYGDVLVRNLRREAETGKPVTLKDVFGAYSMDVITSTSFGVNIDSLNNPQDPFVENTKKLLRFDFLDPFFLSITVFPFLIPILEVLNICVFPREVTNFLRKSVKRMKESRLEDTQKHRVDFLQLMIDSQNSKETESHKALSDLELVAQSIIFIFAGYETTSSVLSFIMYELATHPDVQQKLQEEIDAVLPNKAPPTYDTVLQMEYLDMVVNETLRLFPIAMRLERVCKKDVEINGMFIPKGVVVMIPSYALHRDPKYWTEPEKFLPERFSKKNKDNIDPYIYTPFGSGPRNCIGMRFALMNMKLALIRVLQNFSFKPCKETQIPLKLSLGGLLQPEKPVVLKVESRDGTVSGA
Glyceraldehyde-3-phosphate dehydrogenase, sequence (P04406 whole entry, the tested form may be a part): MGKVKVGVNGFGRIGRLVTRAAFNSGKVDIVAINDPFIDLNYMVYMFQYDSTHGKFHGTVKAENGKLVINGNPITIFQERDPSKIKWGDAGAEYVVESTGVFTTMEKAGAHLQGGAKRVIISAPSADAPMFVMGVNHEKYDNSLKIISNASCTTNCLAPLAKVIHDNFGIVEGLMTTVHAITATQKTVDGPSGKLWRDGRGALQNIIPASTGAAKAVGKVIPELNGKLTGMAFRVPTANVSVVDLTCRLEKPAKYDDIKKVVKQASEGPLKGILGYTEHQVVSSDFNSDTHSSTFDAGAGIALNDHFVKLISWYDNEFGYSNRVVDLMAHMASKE
Large T antigen, sequence (P03070 whole entry): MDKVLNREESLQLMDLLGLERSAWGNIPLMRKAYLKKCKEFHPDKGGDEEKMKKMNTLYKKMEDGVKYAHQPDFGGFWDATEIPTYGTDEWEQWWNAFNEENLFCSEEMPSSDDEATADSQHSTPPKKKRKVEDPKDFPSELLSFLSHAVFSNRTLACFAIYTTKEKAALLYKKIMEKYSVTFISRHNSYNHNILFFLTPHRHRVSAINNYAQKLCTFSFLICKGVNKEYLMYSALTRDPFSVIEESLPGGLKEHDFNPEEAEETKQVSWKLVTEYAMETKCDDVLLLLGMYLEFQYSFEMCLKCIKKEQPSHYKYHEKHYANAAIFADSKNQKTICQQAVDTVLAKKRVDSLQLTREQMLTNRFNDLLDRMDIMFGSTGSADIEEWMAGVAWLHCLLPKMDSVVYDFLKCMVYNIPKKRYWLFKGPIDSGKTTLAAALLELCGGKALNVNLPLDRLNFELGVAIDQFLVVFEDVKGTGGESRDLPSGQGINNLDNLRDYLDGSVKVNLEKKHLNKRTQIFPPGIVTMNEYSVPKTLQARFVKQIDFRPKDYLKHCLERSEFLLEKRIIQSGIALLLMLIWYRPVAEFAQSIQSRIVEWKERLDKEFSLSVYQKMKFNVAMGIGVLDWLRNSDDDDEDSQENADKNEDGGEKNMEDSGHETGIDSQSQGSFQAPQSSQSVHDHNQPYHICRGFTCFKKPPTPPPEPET
FAD-linked sulfhydryl oxidase ALR, sequence (P55789 whole entry): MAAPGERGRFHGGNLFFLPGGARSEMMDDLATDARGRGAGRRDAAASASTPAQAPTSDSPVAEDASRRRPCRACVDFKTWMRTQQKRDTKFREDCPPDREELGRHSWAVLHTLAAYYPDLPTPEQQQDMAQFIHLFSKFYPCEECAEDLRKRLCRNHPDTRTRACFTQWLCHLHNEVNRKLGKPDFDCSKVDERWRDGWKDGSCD

**Q.** Which AC50 [1] does the source give for `Cc1c(C)c2ccc(OCC(=O)Nc3nccs3)cc2oc1=O` here?
**A.** Its AC50 is 4.84 µM (active).

**Q.** And the AC50 [2]?
**A.** Its AC50 is > 52 µM (inactive).

**Q.** And the AC50 [3]?
**A.** Its AC50 is 4.38 µM (active).

**Q.** For `Cc1cc(C)cc(NC(=O)CCc2ccc(C)o2)c1`, which IC50 [4] is on record?
**A.** The IC50 was 36.7 µM (active).

**Q.** Which AC50 [5] does the source give for `O=C(Nc1nc2ccccc2s1)c1ccc2c(c1)OCO2` here?
**A.** Its AC50 is > 52 µM (inactive).

**Q.** And the AC50 [1]?
**A.** The AC50 was 3.49 µM (active).

**Q.** And the AC50 [6]?
**A.** The AC50 was > 52 µM (inactive).

**Q.** What about the AC50 [2] of the same molecule?
**A.** The AC50 was 31.5 µM (active).

**Q.** And the AC50 [3]?
**A.** The AC50 was 4.59 µM (active).

**Q.** With `CNC(=O)COc1ccc2oc3c(c2c1)CCCC3` as the molecule, how does the EC50 [7] read?
**A.** Its EC50 is 1.33 µM (active).

**Q.** For `Nc1ccc(C(=O)Nc2cccc(N)c2)cc1`, which AC50 [8] is on record?
**A.** Its AC50 is 1.96 µM (active).

**Q.** For `CCCCNc1nc(-c2ccccc2)c(C(=O)OCC)cc1C#N`, which EC50 [7] is on record?
**A.** Its EC50 is 1.19 µM (active).

**Q.** What about the AC50 [9] of the same molecule?
**A.** The AC50 was 28.2 µM (inconclusive).

**Q.** For `CN1CCN(C2=C(Cl)C(=O)N(c3ccc(Cl)nc3)C2=O)CC1`, which IC50 [10] is on record?
**A.** Its IC50 is > 50 µM (inconclusive).

**Q.** With `O=C(Nc1nnc(-c2cc(Cl)ccc2Cl)o1)C1=COCCO1` as the molecule, how does the IC50 [4] read?
**A.** The IC50 was 11.6 µM (active).

**Q.** With `CCOC(=O)c1cc(C#N)c(N2CCCCC2)nc1-c1ccccc1` as the molecule, how does the EC50 [7] read?
**A.** The EC50 was 3.76 µM (active).

**Q.** Which AC50 [11] does the source give for `CC(C)NC(=O)N(C)C[C@@H]1Oc2ccc(NC(=O)C3CC3)cc2CC(=O)N([C@@H](C)CO)C[C@@H]1C` here?
**A.** The AC50 was 64.5 µM (active).

**Q.** For `COc1ccc(S(=O)(=O)Nc2ccc3c(c2)C(=O)N([C@@H](C)CO)C[C@H](C)[C@@H](CN(C)C(=O)Nc2cccc4ccccc24)OCCCC[C@H](C)O3)cc1`, which AC50 [5] is on record?
**A.** The AC50 was 22.8 µM (active).

**Q.** What about the AC50 [6] of the same molecule?
**A.** The AC50 was > 52 µM (inactive).

**Q.** And the AC50 [2]?
**A.** The AC50 was > 52 µM (inactive).

**Q.** And the AC50 [3]?
**A.** Its AC50 is 8.72 µM (active).

**Q.** Which IC50 [12] does the source give for `C/C(CC(=O)Nc1ccc(N(C)C)cc1)=N\NC(=O)c1cnccn1` here?
**A.** The IC50 was 17.5 µM (active).

**Q.** For `CC(C)(C)[S@+]([O-])N1Cc2cc(C(=O)NC3CCC3)nc(-c3cccc(Br)c3)c2[C@@H]1CCO`, which AC50 [13] is on record?
**A.** The AC50 was 7.47 µM (active).

**Q.** With `COc1ccc(-c2ccccc2[C@H]2[C@@H](CO)N(C(=O)C3CCOCC3)[C@H]2C#N)cc1` as the molecule, how does the AC50 [13] read?
**A.** The AC50 was > 39 µM (inactive).

**Q.** With `CO[C@@H]1CN(C)C(=O)c2ccc(NC(=O)Nc3cccc(F)c3)cc2OC[C@H](C)NC[C@H]1C` as the molecule, how does the AC50 [13] read?
**A.** Its AC50 is 7.62 µM (active).

**Q.** With `CC1=NN(c2ccccc2)C(=O)C1C(=O)c1ccccc1` (configuration not stated) as the molecule, how does the IC50 [4] read?
**A.** Its IC50 is 42.1 µM (active).

**Q.** And the CC50 [14]?
**A.** The CC50 was > 40 µM (active).

**Q.** For `OC(CNCc1ccco1)Cn1c2ccc(Br)cc2c2cc(Br)ccc21` (configuration not stated), which EC50 [15] is on record?
**A.** The EC50 was 13.7 µM (active).

**Q.** And the EC50 [16]?
**A.** Its EC50 is > 260 µM (inactive).

**Q.** And the EC50 [17]?
**A.** Its EC50 is > 150 µM (not active).

**Q.** And the EC50 [18]?
**A.** Its EC50 is 8.59 µM (active).

**Q.** And the EC50 [19]?
**A.** Its EC50 is 9.13 µM (active).

**Q.** And the EC50 [20]?
**A.** The EC50 was 4.22 µM (active).

**Q.** What about the AC50 [21] of the same molecule?
**A.** Its AC50 is 3 µM (active).

**Q.** Which IC50 [10] does the source give for `COc1ccc(OC)c(S(=O)(=O)Nc2cccnc2)c1` here?
**A.** The IC50 was > 100 µM (not active).

**Q.** With `COc1cc(OC)c2c(=O)c(-c3ccccc3)c(C)oc2c1OC` [2-METHYL-5,7,8-TRIMETHOXYISOFLAVONE] as the molecule, how does the AC50 [22] read?
**A.** The AC50 was 20 µM (inconclusive).

**Q.** Which AC50 [22] does the source give for `COc1cccc2c1cc([N+](=O)[O-])c1c(C(=O)O)cc3c(c12)OCO3` [ARISTOLOCHIC ACID] here?
**A.** Its AC50 is 10 µM (inconclusive) and 63.1 nM (inconclusive).
